Reference: patent US6423707B1, “Nitroimidazole ester analogues and therapeutic applications” (California Pacific Medical Center, priority 2000, dated 2002)
In brackets after ≈: the same amount, converted by molar mass. Where two headings read alike, the source gives them in different places.

Legend:
[1] = tested on: metronidazole resistant H. pylori isolate (ATCC strain 43579); assay: Helicobacter pylori microbicidal assay (Example 12); assay type: cell-based; conditions: for MBC: Helicobacter pylori
[2] = tested on: Ohio State university Helicobactor pylori isolate working seed lot #061697; assay: microbe, parasite or virus in culture; assay type: cell-based; conditions: Helicobacter pylori, 72 h, read-out: MBC OSU Isolate 061697
[3] = tested on: Helicobactor pylori ATCC strain 43579; assay: microbe, parasite or virus in culture; assay type: cell-based; conditions: Helicobacter pylori, ATCC43579, 72 h, read-out: MBC H. Pylori 43579
[4] = tested on: another H pylori isolate (a virulent human isolate used in the germ-free pig model); assay: microbe, parasite or virus in culture; assay type: cell-based; conditions: Helicobacter pylori
[5] = ATCC43579, lowest concentration that killed 100% of the H. pylori working solution, ATCC strain 43579, metronidazole-resistant, 72 hours, read-out: MBC (Minimal Bactericidal Concentration)
[6] = relative to positive control (=1), ATCC strain 43579
[7] = ATCC43579, 72 h, read-out: MBC (Minimal Bactericidal Concentration)
[8] = ATCC43579, 72 h, read-out: MBC (Minimal Bactericidal Concentration), lowest concentration that killed 100% of the H. pylori working solution, ATCC strain 43579, metronidazole-resistant, 72 hours

| Compound | Bactericidal Activity Index [1, 6] | Bactericidal Activity Index [1] | MBC [2] [µg/mL] | MBC [3] [µg/mL] | also measured |
| --- | --- | --- | --- | --- | --- |
| CCn1cc(C(=O)OCCn2c([N+](=O)[O-])cnc2C)c(=O)c2ccc(C)nc21 [Formula 15] | 8.9 | – | – | – | MBC [1, 5]: 15 µg/mL |
| Cc1ncc([N+](=O)[O-])n1CCO [Positive Control, metronidazole, reference compound] | 1 | – | – | – | MBC [1, 5]: 89 µg/mL (≈ 520 µM) |
| Cc1ncc([N+](=O)[O-])n1CCOC(=O)c1ccc([N+](=O)[O-])o1 [Formula 2C, 2-Methyl-5-nitro-1H-imidazole-1-ethyl 5-nitro-2-furoate] | – | 29.7 | 12.6 | 12.6 | MBC [1, 7]: 3 µg/mL; melting point: 150 to 152 °C |
| 2-methyl-5-nitro-1H-imidazole-1-ethyl 1-ethyl-1,4-dihydro-7-methyl-4-oxo-1,8-naphthyridine-3-carboxylate [Formula 10] | – | 12.7 | – | – | MBC (Minimal Bactericidal Concentration) [1]: 7 µg/mL |
| Cc1ncc([N+](=O)[O-])n1CCOC(=O)c1cc(-c2ccccc2)nc2ccccc12 [Formula 4C, 2-Methyl-5-nitro-1H-imidazole-1-ethyl 2-phenyl-4-quinolinecarboxylate] | 45 | – | 20.5 | 10.3 | MBC [1, 8]: 2 µg/mL; MBC [4]: 10.2 µg/mL; melting point: 122 to 124 °C |
| Cc1ncc([N+](=O)[O-])n1CCOC(=O)c1cccnc1 [Formula 1C, 2-Methyl-5-nitro-1H-imidazole-1-ethyl Nicotinate] | 17.8 | – | 22.3 | 22.3 | MBC [1, 8]: 4 µg/mL; MBC (Minimal Bactericidal Concentration) ([1]; lowest concentration that killed 100% of the H. pylori working solution, ATCC strain 43579, metronidazole-resistant, 72 hours): 5 µg/mL |
| 2-Methyl-5-nitro-1H-imidazole-1-ethyl 9-oxo-9H-thioxanthene-3-carboxylate [Formula 6] | – | 6.4 | – | – | MBC (Minimal Bactericidal Concentration) [1]: 14 µg/mL |
| Cc1ncc([N+](=O)[O-])n1CCOC(=O)c1cc(=O)c2ccccc2o1 [Formula 7, 2-Methyl-5-nitro-1H-imidazole-1-ethyl 4-oxo-4H-1-benzopyran-2-carboxylate] | 8.9 | – | – | – | MBC [1, 5]: 10 µg/mL; melting point: 210 to 212 °C (dec.) |
| Cc1ncc([N+](=O)[O-])n1CCOC(=O)N1c2ccccc2Sc2ccccc21 [Formula 5C, 2-Methyl-5-nitro-1H-imidazole-1-ethyl phenothiazine-10-carboxylate] | 44.5 | – | 10.3 | 10.3 | MBC [1, 8]: 2 µg/mL; MBC [4]: 10.2 µg/mL |
| Cc1ncc([N+](=O)[O-])n1CCOC(=O)c1cc(C(=O)OCCn2c([N+](=O)[O-])cnc2C)cc([N+](=O)[O-])c1 [Formula 3C, Di (2-methyl-5-nitro-1H-imidazole-1-ethyl) 5-nitro-1,3-benzenedicarboxylate] | – | 29.7 | 19.8 | 19.8 | MBC [1, 7]: 3 µg/mL |
| 2-Methyl-5-nitro-1H-imidazole-1-ethyl 9,10-dihydro-9,10-dioxo-2-anthracenecarboxylate [Formula 9] | – | 7.4 | – | – | MBC (Minimal Bactericidal Concentration) [1]: 12 µg/mL |
| Cc1ncc([N+](=O)[O-])n1CCOC(=O)c1ccc(-c2ccc(Cl)cc2[N+](=O)[O-])o1 [Formula 13] | – | – | – | – | MBC [1, 7]: > 97 µg/mL |
